Results on twelve compounds are retold here after ChEMBL document CHEMBL1667829, “Analysis of β-amino alcohols as inhibitors of the potential anti-tubercular target N-acetyltransferase” (Bioorg Med Chem Lett, 2011).

The source made the active and inactive calls. The rule behind the calls is not given here.

The test system of assay [1] is Mycobacterium marinum. Kind of assay: Inhibition of Mycobacterium marinum NAT using isoniazed substrate at 30 uM by acetyl-coA hydrolysis assay.
Assay [2] deals with T1, Arylamine N-acetyltransferase (Mycolicibacterium smegmatis, UniProt O86309).
T1 sequence (O86309 whole entry): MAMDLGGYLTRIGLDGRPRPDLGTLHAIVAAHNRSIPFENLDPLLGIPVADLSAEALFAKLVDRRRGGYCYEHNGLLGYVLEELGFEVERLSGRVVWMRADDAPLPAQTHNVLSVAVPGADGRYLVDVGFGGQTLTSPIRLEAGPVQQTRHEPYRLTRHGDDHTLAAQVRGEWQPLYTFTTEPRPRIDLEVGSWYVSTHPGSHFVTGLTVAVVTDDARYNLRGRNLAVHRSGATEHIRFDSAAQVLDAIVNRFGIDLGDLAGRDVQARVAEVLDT
In words: Inhibition of Mycobacterium smegmatis NAT using isoniazed substrate by acetyl-coA hydrolysis assay.

Assay [3] in a line: Inhibition of Mycobacterium marinum NAT using isoniazed substrate by acetyl-coA hydrolysis assay.
Assay [4] addresses T1, Arylamine N-acetyltransferase. Kind of assay: Inhibition of Mycobacterium smegmatis NAT using 5-aminosalicylate substrate by acetyl-coA hydrolysis assay.
Assay [5] in a line: Inhibition of Mycobacterium marinum NAT using 5-aminosalicylate substrate by acetyl-coA hydrolysis assay.
For assay [6], the target named is T2, Arylamine N-acetyltransferase (Pseudomonas aeruginosa (strain ATCC 15692 / PAO1 / 1C / PRS 101 / LMG12228), UniProt Q9HUY3).
T2 sequence (Q9HUY3 whole entry): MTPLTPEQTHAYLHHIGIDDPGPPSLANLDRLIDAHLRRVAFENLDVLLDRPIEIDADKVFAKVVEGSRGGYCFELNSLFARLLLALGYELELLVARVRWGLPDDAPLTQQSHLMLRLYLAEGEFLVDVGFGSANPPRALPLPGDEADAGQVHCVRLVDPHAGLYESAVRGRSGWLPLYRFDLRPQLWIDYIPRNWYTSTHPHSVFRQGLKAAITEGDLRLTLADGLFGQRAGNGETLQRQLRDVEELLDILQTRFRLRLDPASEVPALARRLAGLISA
Kind of assay: Inhibition of Pseudomonas aeruginosa NAT using isoniazed substrate by acetyl-coA hydrolysis assay.

The subject of assay [7] is Mycobacterium marinum. Kind of assay: Antimicrobial activity against Mycobacterium marinum at 100 ug/ml. The format is functional, organism-based.
In assay [8] the target is T2, Arylamine N-acetyltransferase. Kind of assay: Inhibition of Pseudomonas aeruginosa NAT using 5-aminosalicylate substrate by acetyl-coA hydrolysis assay.
Assay [9] deals with Mycobacterium marinum. In words: Antimicrobial activity against Mycobacterium marinum at 80 ug/ml. It is filed as functional, organism-based.
Assay [10] concerns Mycobacterium tuberculosis. Kind of assay: Antimicrobial activity against Mycobacterium tuberculosis at 50 ug/ml relative to control. It is filed as functional.
Assay [11] can be described thus: Inhibition of Mycobacterium marinum NAT using hydralazine substrate by acetyl-coA hydrolysis assay.

What is called inhibition is the change of the read-out against control, counted positive when it falls. Low readings indicate little suppression, high ones strong suppression. In turn, `CC1(C)NC(=O)N(CC(O)COc2ccccc2F)C1=O` (configuration not stated) came in with an inhibition with Mycobacterium marinum [1] of 0%.
A word on the IC50: it is the concentration at which inhibition is half-maximal. Read a high IC50 as weaker potency in that assay. Consider `CC1(C)NC(=O)N(CC(O)COc2ccc(C3CCCC3)cc2)C1=O` (configuration not stated), for which the half-inhibitory concentration (IC50) in assay [2], in assay [3], in assay [4], in assay [5], in [6] and in assay [8] was more than 50 µM in each case. The outcome in the assay with Mycobacterium marinum [7] and with Mycobacterium marinum [9] was inactive. In the assay with Mycobacterium marinum [1], this compound registered an inhibition of 0%.
Take `CC1(C)NC(=O)N(CC(O)COc2ccccc2[N+](=O)[O-])C1=O` (configuration not stated): the inhibition with Mycobacterium marinum [1] stood at 4%.
`CC1(C)NC(=O)N(CC(O)COc2ccccc2-c2cccc3ccccc23)C1=O` (configuration not stated) had an inhibition in the assay with Mycobacterium marinum [1] of 28%.
With `CC1(C)NC(=O)N(CC(O)COc2ccc(-c3ccccc3)cc2)C1=O` (configuration not stated), the inhibition with Mycobacterium marinum [1] came out at 8%.
In the assay with Mycobacterium marinum [1], `O=C1NC(c2ccccc2)C(=O)N1CC(O)COc1ccccc1` (configuration not stated) showed an inhibition of 0%.
On the same count and under the same terms, then `CC1(C)NC(=O)N(CC(O)COc2ccccc2-c2ccccc2)C1=O` (configuration not stated), with 24%; and `CC1(C)NC(=O)N(CC(O)COc2ccccc2Br)C1=O` (configuration not stated), with 24%; and `O=C1CNC(=O)N1CC(O)COc1ccccc1` (configuration not stated), with 0%.
Take `Cc1ccccc1OCC(O)CN1C(=O)NC(C)(C)C1=O` (configuration not stated): in the assay on Mycobacterium marinum [1], the inhibition was found to be 0.5%.
As to `CC1(C)NC(=O)N(CC(O)COc2ccccc2C2CCCC2)C1=O` (configuration not stated), the half-maximal inhibitory concentration (IC50) stood at 9.4 µM in assay [2]; 17.7 µM in assay [4]; 33.1 µM in [5]; 37 µM in assay [6]; 1.5 µM in assay [11]; 16.2 µM in assay [8]. The inhibition at 50 µg/mL in [10] was 20%. The inhibition in the assay with Mycobacterium marinum [1] came out at 58%.
On to `CC1(C)NC(=O)N(CC(O)COc2cccc(-c3ccccc3)c2)C1=O` (configuration not stated), for which, in the assay with Mycobacterium marinum [1], the inhibition is 6%.
